Measured values reported in publication PMC5789092 (Scientific Reports, 2018).
Where two headings read alike, the source gives them in different places.

How the values were obtained:
[1] = tested on: HeLa (human cervix cancer); assay: SRB cytotoxicity assay, HeLa; format: cell-based; details: 72 h, mean ± SD
[2] = tested on: PC-3 (human prostate cancer); assay: SRB cytotoxicity assay, PC-3; format: cell-based; details: 72 h
[3] = tested on: HEp-2 (human larynx epidermal cancer); assay: SRB cytotoxicity assay, HEp-2; format: cell-based; details: 72 h, mean ± SD
From the text: (§1) All the synthesized derivatives of 1 and 2 were screened for their anticancer activities against four human cancer cell lines (HeLa, PC-3, HEp-2 and HepG2) and two normal cell lines (CHO and HUVEC) using the sulforhodamine B (SRB) assay.
(§2) PC-3 (human prostate cancer), HepG2 (human liver cancer) and CHO (Chinese hamster ovary) cell lines were obtained from Shanghai Institute of Biochemistry and Cell Biology, Chinese Academy of Sciences. HeLa (human cervix cancer), HUVEC (human umbilical vein endothelial cells) and HEp-2 (human laryngeal cancer) cell lines were granted by Prof. Lei of college of life sciences, Northwest A&F University. The six cell lines were grown in RPMI-1640 (Gibco) containing 10% (v/v) thermally inactivated fetal bovine serum (FBS), penicillin (100 KU/L) and streptomycin (100 KU/L) at 37 °C in a 5% CO2 humidified incubator.
(§3) In vitro cytotoxicity was assessed by using the SRB colorimetric assay refer to previous methods[19],[42].

[4] = tested on: HepG2 (human liver cancer); assay: SRB cytotoxicity assay, HepG2; format: cell-based; details: 72 h
[5] = tested on: CHO (Chinese hamster ovary); assay: SRB cytotoxicity assay, CHO normal cells; format: cell-based; details: Cricetulus griseus, 72 h, normal cell line
From the text: as §1, §2, §3

[6] = tested on: HUVEC (human umbilical vein endothelial cell); assay: SRB cytotoxicity assay, HUVEC normal cells; format: cell-based; details: for IC50: Homo sapiens, HUVEC, 72 h, SRB, normal cell line
PC-3 cells [7] = assay: Cell cycle analysis (PI staining, flow cytometry); format: cell-based, human; details: PC-3, 48 h
Protocol: The cultured cells were treated with these compounds at the indicated concentrations for 48 h, then harvested, and analyzed by flow cytometry. […] Each experiment was performed in triplicate.
The cell cycle arrest on PC-3 and HepG2 cells was detected with PI staining assay (Sigma) as described previously[19]. After treatment with samples at the set concentrations for 48 h, cells were centrifuged and fixed in 70% ethanol at 4 °C refrigerator 12 h and then resuspended in PBS (100 μL RNase A and 400 μL PI). Cellular DNA content was measured using a FACSCalibur flow cytometer with Modfit LT 3.0 software. Twenty thousand cells were collected per sample. Mean values are presented from three independent experiments.

PC-3 cells [8] = assay: Hoechst 33258 nuclear chromatin condensation, PC-3; format: cell-based, human; details: PC-3, 72 h; VP-16 0.5 and 1 μM; 1i 1, 2 and 4 μM
Protocol: (§4) Figure 10 Induction of apoptosis by active compound 1i and VP-16 at the indicated concentrations on PC-3 cells. (a) 72 h after the treatment of these compounds at the indicated concentrations, cells were fixed, washed with PBS, stained with Hoechst 33258, and analyzed for morphological characteristics associated with apoptosis by fluorescence microscopic analysis (×20). (b) Compound 1i triggered changes of pro-caspase 3 and PARP by Western blotting analysis. Cells were lysed after 72 h treatment with 1i at the concentration (1, 2 and 4 μM). The lysates were resolved on a 10% SDS-PAGE, transferred on to a nitrocellulose membrane and probed for cleaved caspase 3 and PARP. β-actin was used as a loading control.
Condensation of nuclear chromatin is usually the late apoptotic event and is detected by staining Hoechst 33258[43]. PC-3 cells containing 2.0 × 10^5 cells/well were cultured on coverslips, and kept in six-well plates for 12 h. After 72 h treatment with 1i and VP-16, Hoechst 33258 staining was carried out according to the kit’s procedure (Beyotime Institute Biotechnology, China). The cells were viewed under a fluorescence microscopy (Olympus BX53 + DP72) with a ×20 objective lens.

[9] = tested on: pro-caspase 3 and PARP in PC-3 cells; assay: Western blotting of pro-caspase 3 and PARP; format: cell-based, human; details: PC-3, 72 h, 1, 2 and 4 μM
Protocol: as §4
PC-3 cells were treated with the indicated concentrations (1, 2 and 4 µM) of 1i for 72 h, cell were collected and lysed. The protein concentration was measured by BCA method, and equal amount proteins were electrophoresed on 10% SDS-PAGE gel, electrotransferred onto NC membrane, and incubated with appropriate primary and secondary antibodies, protein blots were tested by ECL solution and ChemiDoc XRS+ imaging system (Bio-Rad, USA).

HepG2 cells = assay: Hoechst 33258 nuclear morphology, HepG2; format: cell-based, human; details: HepG2, 72 h
Protocol: Figure S2. Induction of apoptosis by active compounds 1 and 1i at the indicated concentrations on HepG2 cells. 72 h after the treatment of these compounds at the indicated concentrations, cells were fixed, washed with PBS, stained with Hoechst 33258, and analyzed for morphological characteristics associated with apoptosis by fluorescence microscopic analysis (20×). NMR spectra

[10] = tested on: HeLa, PC-3, HEp-2 and HepG2 cells; assay: SRB cytotoxicity, summary over the cancer cell lines; format: cell-based, human
cancer cells = tested on: cancer cells; set-up: method as in PMID 24763364, PMID 27262408; details: ref [19],[33]; cited from earlier work
[11] = tested on: canonical p50/p65 NF-κB signaling in PC-3 cells; assay: NF-κB luciferase reporter assay, TNF-α-induced; format: cell-based, human; details: 10 μM, 8 h, TNF-α 50 ng/mL
From the text: The canonical NF-κB signaling pathway is a target for developing therapeutics for multiple human diseases, including cancer and chronic inflammatory diseases[46],[47]. Many STLs are known modulators of NF-κB signaling[7],[48]. In particular, two famous STLs parthenolide and helenalin have been certified to covalently target Cys38 of NF-κB p65 through hetero-Michael addition between exocyclic methylene butyrolactones and biological thiol of Cys38[49],[50]. […] To test the inhibition of active compound in NF-κB signaling, 1i and parthenolide (P, positive control) were screened for inhibitory activity toward canonical p50/p65 NF-κB signaling with a cellular luciferase assay (Fig. 12)[51]. […] The observation that 1i and P are comparably potent in this assay hints at the possibility that 1i may also have similar properties like 1β-hydroxy alantolactone and parthenolide in cells.
Figure 12 NF-κB-luciferase inhibition assay in PC-3 cells. PC-3 cells with a stably transfected NF-κB luciferase reporter were stimulated with TNF-α (50 ng/mL) (except for noninduced control, Non-Ind) and different dose of parthenolide (P) and 1i for 8 h. Normalized luminescence was plotted as NF-κB luciferase activity compared to control (%).
PC-3 cells (8000 cells/well) were placed in a 96-well plate and the cells were then transfected with pNF-κB-Luc expression plasmid reference to the method.

[12] = tested on: HeLa (human cervix cancer); set-up: method as in Dong et al.[19]; details: footnote c; ref Dong et al.[19]; cited from earlier work
[13] = tested on: HEp-2 (human larynx epidermal cancer); details: cited from earlier work
[14] = tested on: CHO (Chinese hamster ovary); details: cited from earlier work
[15] = mean ± SD, read-out: IC50 HepG2
[16] = read-out: IC50 PC-3 (Table 3, C13-methylene modified derivatives)
[17] = read-out: IC50 HepG2 (Table 3, C13-methylene modified derivatives)
[18] = footnote c, ref Dong et al.[19]
[19] = footnote b, ref Xiang et al.[22]

C=C1C(=O)OC2CC3(C)C(=CC12)C(C)CCC3OC(C)=O (stereo not drawn) [1a, 1β-ethanoyl alantolactone]
IC50 [1]: 8.2 ± 1 µM
IC50 ([2]; mean ± SD, read-out: IC50 PC-3): 8.1 ± 0.3 µM
IC50 [3]: 10.3 ± 1.8 µM
IC50 [4, 15]: 6.3 ± 1.3 µM
IC50 [5]: 10.3 ± 1.8 µM
IC50 [6]: 12.3 ± 1.6 µM

C=C1C(=O)O[C@@H]2C[C@]3(C)C(=C[C@H]12)[C@@H](C)CC[C@H]3OC(=O)CCC(=O)O [1h, 1β-carboxypropionyl alantolactone]
IC50 [1]: > 40 µM
IC50 ([2]; mean ± SD, read-out: IC50 PC-3): > 40 µM
IC50 [3]: > 40 µM
IC50 [4, 15]: > 40 µM
IC50 [6]: 39.5 ± 2.5 µM

C=C1C(=O)O[C@@H]2C[C@@]3(C)C(=O)CC[C@H](C)C3=C[C@H]12 [1i, 1-carbonyl-alantolactone]
IC50 [1]: 2.7 ± 0.1 µM
IC50 ([2]; mean ± SD, read-out: IC50 PC-3): 2.5 ± 0.8 µM
IC50 [2, 16]: > 40 µM
IC50 [3]: 3.5 ± 0.9 µM
IC50 [4, 15]: 5.1 ± 0.2 µM
IC50 [4, 17]: > 40 µM
IC50 [5]: 2.5 ± 0.2 µM
IC50 [6]: 8.8 ± 0.7 µM
selectivity index (IC50 on four cancer cells versus HUVEC cells) ([6]; comparison of IC50 between four cancer cells and HUVEC): 2–3
%G0/G1 (PC-3 cells [7]; 1.0 μM): 50.5%
%G2/M (PC-3 cells [7]; 1.0 μM): 17.5%
%S (PC-3 cells [7]; 1.0 μM): 32.0%
%G0/G1 (PC-3 cells [7]; 2.0 μM): 47.7%
%G2/M (PC-3 cells [7]; 2.0 μM): 18.5%
%S (PC-3 cells [7]; 2.0 μM): 33.8%
%G0/G1 (PC-3 cells [7]; 4.0 μM): 44.6%
%G2/M (PC-3 cells [7]; 4.0 μM): 19.5%
%S (PC-3 cells [7]; 4.0 μM): 35.9%
nuclear morphology (Hoechst 33258), apoptosis (PC-3 cells [8]): apoptotic tendency was apparent
pro-caspase 3 and cleavage of PARP (Western blot) [9]: significant dose-dependent decrease in pro-caspase 3 and the cleavage of its substrate PARP
nuclear morphology (Hoechst 33258), apoptosis (HepG2 cells): Changes of nuclear morphology

CC1CCC(O)C2(C)CC3OC(=O)C(C)C3C=C12 (stereo not drawn) [1r, (11 S)-1β-hydroxy alantolactone derivative]
IC50 [2, 16]: > 50 µM
IC50 [4, 17]: > 50 µM
cytotoxic activity in words ([10]; SAR statement on Tables 2 and 3): loss of cytotoxic activity

C=C1C(=O)O[C@@H]2C[C@]3(C)C(=C(C)CC[C@H]3OC(=O)c3ccccc3)C[C@H]12 [2b, 1β-benzoyl ivangustin]
IC50 [1]: 27.9 ± 2.5 µM
IC50 ([2]; mean ± SD, read-out: IC50 PC-3): > 40 µM
IC50 [3]: > 40 µM
IC50 [4, 15]: > 40 µM

C=C1C(=O)O[C@@H]2C[C@]3(C)C(=C(C)CC[C@H]3OC(=O)c3ccc(F)cc3)C[C@H]12 [2c, 1β-(4-fluorobenzoyl) ivangustin]
IC50 [1]: > 40 µM
IC50 ([2]; mean ± SD, read-out: IC50 PC-3): > 40 µM
IC50 [3]: > 40 µM
IC50 [4, 15]: > 40 µM

C=C1C(=O)O[C@@H]2C[C@@]3(C)C(=O)CCC(C)=C3C[C@H]12 [2d, 1-carbonyl-ivangustin]
IC50 [1]: 8.6 ± 1.4 µM
IC50 ([2]; mean ± SD, read-out: IC50 PC-3): 7 ± 2.1 µM
IC50 [3]: 14.1 ± 2.9 µM
IC50 [4, 15]: 7.7 ± 1.5 µM
IC50 [5]: 12.1 ± 5.2 µM
IC50 [6]: 10.5 ± 0.5 µM

C=C1C(=O)OC2CC(C)=C(C(C)CCCOC(C)=O)C(OC(=O)CCCCCCCCCCC)C12 (stereo not drawn) [ABL-L, 1-O-acetyl-6-O-lauroylbritannilactone]
fold stronger suppression against cancer cells compared with ABL (cancer cells): 4–10 fold

C=C1C(=O)O[C@H]2[C@H]1CC/C(C)=C/CC[C@@]1(C)O[C@@H]21 [P, parthenolide, reference compound]
IC50 [1]: 7.6 ± 0.6 µM
IC50 ([2]; mean ± SD, read-out: IC50 PC-3): 3.4 ± 0.6 µM
IC50 [3]: 6.8 ± 0.3 µM
IC50 [5]: 5.3 ± 0.7 µM
%G0/G1 (PC-3 cells [7]; 4.0 μM): 46.2%
%G2/M (PC-3 cells [7]; 4.0 μM): 18.2%
%S (PC-3 cells [7]; 4.0 μM): 35.6%
NF-κB luciferase activity compared to control [11]: 52.1%

COc1cc([C@@H]2c3cc4c(cc3[C@@H](O[C@@H]3O[C@@H]5CO[C@@H](C)O[C@H]5[C@H](O)[C@H]3O)[C@H]3COC(=O)[C@H]23)OCO4)cc(OC)c1O [VP-16, etoposide, reference compound]
IC50 ([2]; mean ± SD, read-out: IC50 PC-3): 0.6 ± 0.1 µM
IC50 [4, 15]: 7.6 ± 0.8 µM
IC50 [6]: 1.9 ± 0.2 µM
%G0/G1 (PC-3 cells [7]; 1.0 μM): 28.1%
%G2/M (PC-3 cells [7]; 1.0 μM): 42.4%
%S (PC-3 cells [7]; 1.0 μM): 29.5%
nuclear morphology (Hoechst 33258), apoptosis (PC-3 cells [8]): fragmentation and condensation of chromatin
IC50 [12]: 3 ± 0.3 µM
IC50 [13, 18]: 4.8 ± 0.5 µM
IC50 [14, 18]: 2.6 ± 0.2 µM

C=C1C(=O)OC2CC3(C)C(=CC12)C(C)CCC3O (stereo not drawn) [compound 1, 1β-hydroxyalantolactone]
IC50 [1]: 3.2 ± 0.8 µM
IC50 ([2]; mean ± SD, read-out: IC50 PC-3): 4.5 ± 0.7 µM
IC50 [4, 15]: 5.2 ± 0.1 µM
IC50 [6]: 9.2 ± 0.1 µM
IC50 ([10]; Homo sapiens, range over four cancer cell lines, read-out: IC50 range against HeLa, PC-3, HEp-2 and HepG2 cells): 3.2 to 6.4 µM
%G0/G1 (PC-3 cells [7]; 1.0 μM): 51.2%
%G2/M (PC-3 cells [7]; 1.0 μM): 17.1%
%S (PC-3 cells [7]; 1.0 μM): 31.7%
%G0/G1 (PC-3 cells [7]; 2.0 μM): 49.3%
%G2/M (PC-3 cells [7]; 2.0 μM): 16.7%
%S (PC-3 cells [7]; 2.0 μM): 34.0%
%G0/G1 (PC-3 cells [7]; 4.0 μM): 45.8%
%G2/M (PC-3 cells [7]; 4.0 μM): 18.0%
%S (PC-3 cells [7]; 4.0 μM): 36.2%
IC50 [13, 19]: 3.3 ± 0.2 µM
IC50 [14, 19]: 6.4 ± 0.1 µM
